In patent publication US20260262643A1, “HERBICIDAL BENZOXAZINES” (FMC CORPORATION, priority 2022, published 2026):

Tests used:
[1] = test system: oat, wild; assay: Test C preemergence; assay type: in vivo, Avena fatua; settings: 0 to 100 scale (0 no effect, 100 complete control)
In short: (§1)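 Seeds in loam–sand blend received preemergence directed soil spray of test chemicals in non-phytotoxic solvent with surfactant; postemergence treatment was applied at one- to two-leaf stage (2–10 cm). After 10 days in greenhouse, injury rated visually versus untreated controls, 0 (no effect) to 100 (complete control).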

[2] = test system: soybean; assay: Test C preemergence; assay type: in vivo, Glycine max; settings: 0 to 100 scale (0 no effect, 100 complete control)
In short: as §1

[3] = test system: wheat; assay: Test C preemergence; assay type: in vivo, Triticum aestivum; settings: 0 to 100 scale (0 no effect, 100 complete control)
In short: as §1

[4] = test system: barnyardgrass; assay: Test C postemergence; assay type: in vivo, Echinochloa crusgalli; settings: 10 days
In short: as §1

[5] = test system: barnyardgrass; assay: Test C preemergence; assay type: in vivo, Echinochloa crusgalli; settings: 0 to 100 scale (0 no effect, 100 complete control)
In short: as §1

[6] = test system: wheat; assay: Test C postemergence; assay type: in vivo, Triticum aestivum; settings: 10 days
In short: as §1

[7] = test system: rice; assay: Test D flooded paddy test; assay type: in vivo, Oryza sativa; settings: 250 g ai/ha, applied to paddy water, visual rating after 13 to 14 days, scale 0 to 100 (0 no effect, 100 complete control)
In short: (§2)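 Plants at the 2-leaf stage were grown in pots flooded to 3 cm, and compound was applied directly into the paddy water, with depth kept throughout. After 13–14 days in a greenhouse, injury was rated visually against untreated controls on a 0–100 scale (100 = complete control); a dash means not tested.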

[8] = test system: kochia; assay: Test C preemergence; assay type: in vivo, Bassia scoparia; settings: 0 to 100 scale (0 no effect, 100 complete control)
In short: as §1

[9] = test system: blackgrass; assay: Test C postemergence; assay type: in vivo, Alopecurus myosuroides; settings: 10 days
In short: as §1

[10] = test system: soybean; assay: Test C postemergence; assay type: in vivo, Glycine max; settings: 10 days
In short: as §1

[11] = test system: pigweed, palmer; assay: Test C preemergence; assay type: in vivo, Amaranthus palmeri; settings: 0 to 100 scale (0 no effect, 100 complete control)
In short: as §1

[12] = test system: barnyardgrass; assay: Test D flooded paddy test; assay type: in vivo, Echinochloa crus-galli; settings: 250 g ai/ha, applied to paddy water, visual rating after 13 to 14 days, scale 0 to 100 (0 no effect, 100 complete control)
In short: as §2

[13] = test system: corn; assay: Test C preemergence; assay type: in vivo, Zea mays; settings: 0 to 100 scale (0 no effect, 100 complete control)
In short: as §1

[14] = test system: galium; assay: Test C postemergence; assay type: in vivo, Galium aparine; settings: 125 g ai/ha, postemergence, 10 days; 0 to 100 scale, 0 no effect, 100 complete control
In short: as §1

[15] = test system: ragweed; assay: Test C preemergence; assay type: in vivo, Ambrosia artemisiifolia; settings: 0 to 100 scale (0 no effect, 100 complete control)
In short: as §1

[16] = test system: green foxtail; assay: Test C preemergence; assay type: in vivo, Setaria viridis; settings: 0 to 100 scale (0 no effect, 100 complete control)
In short: as §1

[17] = test system: green foxtail; assay: Test C postemergence; assay type: in vivo, Setaria viridis; settings: 10 days
In short: as §1

[18] = test system: oat, wild; assay: Test C postemergence; assay type: in vivo, Avena fatua; settings: 10 days
In short: as §1

[19] = test system: corn; assay: Test C postemergence; assay type: in vivo, Zea mays; settings: 10 days
In short: as §1

[20] = test system: ragweed; assay: Test C postemergence; assay type: in vivo, Ambrosia artemisiifolia; settings: 10 days
In short: as §1

[21] = test system: blackgrass; assay: Test C preemergence; assay type: in vivo, Alopecurus myosuroides; settings: 0 to 100 scale (0 no effect, 100 complete control)
In short: as §1

[22] = test system: ryegrass, Italian; assay: Test C postemergence; assay type: in vivo, Lolium multiflorum; settings: 10 days
In short: as §1

[23] = test system: pigweed, palmer; assay: Test C postemergence; assay type: in vivo, Amaranthus palmeri; settings: 10 days
In short: as §1

[24] = test system: ducksalad; assay: Test D flooded paddy test; assay type: in vivo, Heteranthera limosa; settings: 250 g ai/ha, applied to paddy water, visual rating after 13 to 14 days, scale 0 to 100 (0 no effect, 100 complete control)
In short: as §2

[25] = test system: ryegrass, Italian; assay: Test C preemergence; assay type: in vivo, Lolium multiflorum; settings: 0 to 100 scale (0 no effect, 100 complete control)
In short: as §1

[26] = test system: kochia; assay: Test C postemergence; assay type: in vivo, Bassia scoparia; settings: 10 days
In short: as §1

[27] = test system: sedge, umbrella; assay: Test D flooded paddy test; assay type: in vivo, Cyperus difformis; settings: 250 g ai/ha, applied to paddy water, visual rating after 13 to 14 days, scale 0 to 100 (0 no effect, 100 complete control)
In short: as §2

[28] = test system: horseweed; assay: Test C postemergence; assay type: in vivo, Erigeron canadensis; settings: 10 days
In short: as §1

[29] = Preemergence, 500 g ai/ha, visual rating after 10 days
[30] = Test C, preemergence, 125 g ai/ha
[31] = 125 g ai/ha, postemergence, 0 to 100 scale, 0 no effect, 100 complete control
[32] = Postemergence, 500 g ai/ha, visual 0 to 100 scale (0 no effect, 100 complete control)

Which results are given for `Cc1ccc(-n2cnc(C(C)(F)F)n2)cc1C(=O)N1C[C@H](C)Oc2c(Cl)cccc21` [Compound 248]?
Plant response rating, Oat, Wild [1, 29]: 90; Oat, Wild plant response rating [1, 30]: 40; Plant response rating, Soybean [2, 29]: 100; Soybean plant response rating [2, 30]: 60; Plant response rating, Wheat [3, 29]: 90; Wheat plant response rating [3, 30]: 40; Plant response rating, Barnyardgrass [4, 31]: 50; Plant response rating, Barnyardgrass [4, 32]: 70; Plant response rating, Barnyardgrass [5, 29]: 100; Barnyardgrass plant response rating [5, 30]: 100; Plant response rating, Wheat [6, 31]: 30; Plant response rating, Wheat [6, 32]: 90; Plant response rating, Rice (Flood) [7]: 0; Plant response rating, Kochia [8, 29]: 100; Kochia plant response rating [8, 30]: 100; Plant response rating, Blackgrass [9, 31]: 90; Plant response rating, Blackgrass [9, 32]: 100; Plant response rating, Soybean [10, 31]: 100; Plant response rating, Soybean [10, 32]: 100; Plant response rating, Pigweed, Palmer [11, 29]: 100; Pigweed, Palmer plant response rating [11, 30]: 100; Plant response rating, Barnyardgrass (Flood) [12]: 0; Plant response rating, Corn [13, 29]: 50; Corn plant response rating [13, 30]: 20; Plant response rating, Galium [14]: 100; Plant response rating, Ragweed [15, 29]: 90; Ragweed plant response rating [15, 30]: 80; Plant response rating, Foxtail, Green [16, 29]: 100; Foxtail, Green plant response rating [16, 30]: 100; Plant response rating, Foxtail, Green [17, 31]: 90; Plant response rating, Foxtail, Green [17, 32]: 90; Plant response rating, Oat, Wild [18, 31]: 60; Plant response rating, Oat, Wild [18, 32]: 70; Plant response rating, Corn [19, 31]: 60; Plant response rating, Corn [19, 32]: 70; Plant response rating, Ragweed [20, 31]: 90; Plant response rating, Ragweed [20, 32]: 90; Plant response rating, Blackgrass [21, 29]: 70; Blackgrass plant response rating [21, 30]: 30; Plant response rating, Ryegrass, Italian [22, 31]: 90; Plant response rating, Ryegrass, Italian [22, 32]: 100; Plant response rating, Pigweed, Palmer [23, 31]: 90; Plant response rating, Pigweed, Palmer [23, 32]: 100; Plant response rating, Ducksalad (Flood) [24]: 0; Plant response rating, Ryegrass, Italian [25, 29]: 100; Ryegrass, Italian plant response rating [25, 30]: 90; Plant response rating, Kochia [26, 31]: 90; Plant response rating, Kochia [26, 32]: 100; Plant response rating, Sedge, Umbrella (Flood) [27]: 0; Plant response rating, Horseweed [28, 31]: 10; Plant response rating, Horseweed [28, 32]: 40
